In PubChem BioAssay (NCI):
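Cultured in 96-well plates, cells were exposed to test compound for 48 hours across five concentrations. Abbreviation: GI50, concentration required for 50% inhibition of growth. The concentration for full growth arrest is given as TGI.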

Assays:
Assay in all cases: growth of human tumour cells (NCI), 48 h
SF-268 CNS = test system: SF-268 CNS
SW-620 colon = test system: SW-620 colon
BT-549 breast = test system: BT-549 breast
HCC-2998 colon = test system: HCC-2998 colon
HL-60(TB) leukemia = test system: HL-60(TB) leukemia
CAKI-1 renal = test system: CAKI-1 renal
NCI-H23 lung = test system: NCI-H23 lung
786-0 renal = test system: 786-0 renal
UACC-257 melanoma = test system: UACC-257 melanoma
MDA-MB-435 = test system: MDA-MB-435

| Compound | GI50 (SF-268 CNS) [µM] | TGI (SF-268 CNS) [µM] | GI50 (SW-620 colon) [µM] | TGI (SW-620 colon) [µM] | GI50 (BT-549 breast) [µM] | TGI (BT-549 breast) [µM] | GI50 (HCC-2998 colon) [µM] | TGI (HCC-2998 colon) [µM] | GI50 (HL-60(TB) leukemia) [µM] | TGI (HL-60(TB) leukemia) [µM] | GI50 (CAKI-1 renal) [µM] | TGI (CAKI-1 renal) [µM] | GI50 (NCI-H23 lung) [µM] | TGI (NCI-H23 lung) [µM] | GI50 (786-0 renal) [µM] | TGI (786-0 renal) [µM] | GI50 (UACC-257 melanoma) [µM] | TGI (UACC-257 melanoma) [µM] | TGI (MDA-MB-435) [µM] | GI50 (MDA-MB-435) [µM] |
| --- | --- | --- | --- | --- | --- | --- | --- | --- | --- | --- | --- | --- | --- | --- | --- | --- | --- | --- | --- | --- |
| Cc1nc2sc(C(=O)Nc3cccc4ccccc34)c(N)c2cc1C(=O)c1ccccc1 | 3.54 | > 50 | 1.71 | > 50 | 1.87 | > 50 | 1.52 | > 50 | 1.45 | 4.31 | 1.62 | > 50 | 3.55 | > 50 | 2.38 | > 50 | > 50 | > 50 |  |  |
| CCCCNN |  |  |  | > 100 |  | > 100 |  |  |  | > 100 |  | > 100 |  | > 100 |  | > 100 |  | > 100 | > 100 |  |
| CCC(=O)C(C)C1=Nc2nnc(CCCCCCCc3nnc4n3C(=O)C(C(C)C(=O)CC)=N4)n2C1=O (stereo not drawn) |  | > 100 |  | > 100 |  |  |  | > 100 |  | > 100 |  | > 100 |  | > 100 |  | > 100 |  | > 100 |  |  |
| CN(CN1C(=O)C2Cc3ccccc3CN2C1=O)c1ccccn1 (stereo not drawn) |  | > 100 |  | > 100 |  |  |  | > 100 |  | > 100 |  | > 100 |  | > 100 |  | > 100 |  |  |  |  |
| O=C(Nc1ccc(Cl)cc1)c1ccc(NC2=C(Cl)C(=O)N(Cc3ccccc3)C2=O)cc1 | 17.8 | 50.2 | 6.36 | > 100 | 15.3 | 34.2 |  |  | 6.23 | > 100 | 15.3 | 31.5 | 12.9 | 28.6 | 10.8 | 24.4 | 22.2 | 63.5 | 33.1 | 12.7 |
| CCNC(=O)C#CC(=O)NCC | > 10 | > 100 | > 10 | > 87.7 |  |  | > 10 | > 100 | > 10 | > 53.9 | > 10 | > 100 | > 10 | > 100 | > 10 | > 100 | > 10 | > 100 |  |  |
| COC1OC(CO)C(O)C(O)C1Br (stereo not drawn) |  | > 100 |  | > 100 |  |  |  | > 100 |  | > 100 |  | > 100 |  | > 100 |  | > 100 |  | > 100 |  |  |
| COc1cccc(C(=O)N2CCc3ccccc32)c1OC |  |  |  | > 100 |  |  |  | > 100 |  | 91.1 |  | > 100 |  | > 100 |  | > 100 |  | > 100 |  |  |
| O=C1C[C@@H]2C(COC(=O)c3ccccc3)N(OCc3ccccc3)C[C@@H]2O1 (stereo partly drawn) |  | > 100 |  | > 100 |  |  |  | > 100 |  | > 100 |  |  |  | > 100 |  | > 100 |  | > 100 |  |  |
| N=c1nnc(=O)c2c(s1)-n1ncc(C(=O)O)c1NN2 |  | > 100 |  | > 100 |  |  |  |  |  | > 100 |  | > 100 |  | > 100 |  | > 100 |  |  |  |  |
| CC(=O)OC1CC2C(C)(C)C(=O)C=C[C@]2(C)C2CCC3(C)C(c4ccoc4)C(=O)[C@H]4O[C@]43[C@]12C (stereo partly drawn) |  | > 100 |  | 59.2 |  |  |  | 32.2 |  | 42.3 |  | 75.1 |  | 50.4 |  | 35.5 |  |  |  |  |
| O=S(=O)(NCC1CCC(CNc2ccc(Cl)cc2)CC1)c1ccc(-c2ccccc2)cc1 (stereo not drawn) | > 50 | > 50 | > 50 | > 50 | > 50 | > 50 |  |  | > 50 | > 50 | 25.6 | > 50 | 20.6 | > 50 | > 50 | > 50 | > 50 | > 50 | > 50 | > 50 |
| Cn1c(=O)nc2n(-c3cccc(F)c3)c3ccccc3nc-2c1=O |  | > 100 |  | 26.4 |  |  |  | 39.6 |  |  |  | 96.9 |  | 35.2 |  | > 100 |  | 28.1 |  |  |
| C1CCN(c2nsc(N3CCCCC3)n2)CC1 |  | > 100 |  | > 100 |  |  |  | > 100 |  | > 100 |  | > 100 |  | > 100 |  | > 100 |  | > 100 |  |  |
| Cc1ccc(S(=O)(=O)NC(=O)NC23CC4CC(CC(F)(C4)C2)C3)cc1 |  |  |  | > 100 |  |  |  | > 100 |  | > 100 |  |  |  | > 100 |  | > 100 |  | > 100 |  |  |
| O=C(Nc1nc2ccccc2n1Cc1ccccc1)NC12CC3CC(CC(C3)C1)C2 |  | 35.5 |  | > 100 |  |  |  | > 100 |  | > 100 |  | > 100 |  | > 100 |  | 92.9 |  | > 100 |  |  |
| Cc1c(C(=O)NCCO)[n+](=O)c2cc(Cl)ccc2n1[O-] |  | > 100 |  | > 100 |  |  |  | > 100 |  | > 100 |  |  |  | > 100 |  | > 100 |  | > 100 |  |  |
| CC(=O)OCCOCNC(=S)N/N=C(\C)c1cnc2ccccc2n1 |  | > 100 |  | > 100 |  |  |  | > 100 |  | 80.8 |  |  |  | > 100 |  | > 100 |  | > 100 |  |  |
| COc1cccc(NC(=O)CC(=O)N2N=C(N(CCC#N)c3ccccc3C)CC2c2ccccc2)c1 (stereo not drawn) |  | > 100 |  | > 100 |  |  |  | > 100 |  | > 100 |  | > 100 |  | > 100 |  | > 100 |  | > 100 |  |  |
| COc1cc2c3c(n(CCCNCCN)c(=O)c2cc1OC)-c1cc2c(cc1C3=O)OCO2 | 0.776 | > 31.9 | 0.377 | 3.9 | 1.56 | 9.7 |  |  | 0.682 | 3.66 | 0.836 | 5.87 | 0.242 | 1.14 | 0.312 | 2.5 | 1.95 | 14.1 | 4.56 | 1.02 |
| NC(=O)N/N=C/C(/C=N/NC(N)=O)[N+](=O)[O-] |  | > 100 |  | > 100 |  |  |  |  |  | > 100 |  | > 100 |  | > 100 |  | > 100 |  | > 100 |  |  |
| Cc1c(C(=O)c2ccccc2C(=O)O)c2ccccc2n1C |  |  |  | > 100 |  |  |  | > 100 |  | > 100 |  | > 100 |  | > 100 |  | > 100 |  | > 100 |  |  |
| CC(=O)O[C@H]1CC[C@@]2(C)C(=CC[C@H]3C4=CC=C(C(C)=O)[C@@]4(C)CCC32)C1 (stereo partly drawn) |  | > 100 |  | 52.7 |  |  |  | > 100 |  | > 100 |  | > 100 |  |  |  | > 100 |  | 62.1 |  |  |
